Test results as given in the CheMixHub viscosity set.
Where “and” joins values, the source holds several entries; their conditions need not be identical. Equal entries are not always repeated.

C1CCC2CCCCC2C1 (centres undefined)
viscosity
Settings	293.15 K	298.15 K	303.15 K	308.15 K	313.15 K	318.15 K	323.15 K
100 kPa	2.507 mPa·s	2.272 mPa·s	2.07 mPa·s	–	1.741 mPa·s	–	1.457 mPa·s
101 kPa	2.453 mPa·s	2.223 mPa·s and 2.171 mPa·s	2.026 mPa·s	1.854 mPa·s	1.703 mPa·s	1.571 mPa·s	1.454 mPa·s

C=COCCCC
Settings	viscosity [mPa·s]
308.15 K, 101 kPa	0.374

CC(=O)OC1CCCCC1
101 kPa
Settings	viscosity [mPa·s]
300 K	1.95
310 K	1.61
320 K	1.36

CC12CC3CC(C)(C1)CC(C)(C3)C2
100 kPa
Settings	viscosity
293.15 K	2.641 mPa·s and 2.61 mPa·s
298.15 K	2.376 mPa·s and 2.35 mPa·s
303.15 K	2.147 mPa·s
308.15 K	1.951 mPa·s
313.15 K	1.781 mPa·s and 1.76 mPa·s
318.15 K	1.633 mPa·s
323.15 K	1.502 mPa·s

CC=Cc1ccc(O)c(OC)c1
Settings	viscosity [mPa·s]
298.15 K, 101 kPa	26.7

CCCCCCC
Settings	viscosity
293.15 K, 100 kPa	0.379 mPa·s
293.15 K, 101 kPa	0.4002 mPa·s and 0.408 mPa·s
293.17 K, 101 kPa	0.409 mPa·s
293.2 K, 101.3 kPa	0.4084 mPa·s
296 K, 101.3 kPa	0.395 mPa·s and 0.397 mPa·s
298 K, 101.33 kPa	0.3899 mPa·s
298.15 K, 100 kPa	0.358 mPa·s
303 K, 101.33 kPa	0.374 mPa·s
303.15 K, 100 kPa	0.376 mPa·s and 0.337 mPa·s
303.15 K, 101.33 kPa	0.403 mPa·s and 0.381 mPa·s
308.15 K, 100 kPa	0.342 mPa·s and 0.318 mPa·s
308.15 K, 101.33 kPa	0.363 mPa·s
313.15 K, 100 kPa	0.301 mPa·s and 0.34 mPa·s
313.15 K, 101 kPa	0.331 mPa·s and 0.332 mPa·s and 0.3432 mPa·s
313.2 K, 101.3 kPa	0.3447 mPa·s
318.15 K, 101 kPa	0.326 mPa·s and 0.314 mPa·s and 0.3269 mPa·s
318.15 K, 101.33 kPa	0.317 mPa·s
323 K, 101.33 kPa	0.308 mPa·s
323.1 K, 101.3 kPa	0.3182 mPa·s
323.15 K, 101 kPa	0.3039 mPa·s

CCCCCCCC
Settings	viscosity
293.15 K, 100 kPa	0.547 mPa·s and 0.512 mPa·s
293.15 K, 101 kPa	0.556 mPa·s and 0.539 mPa·s
298.15 K, 100 kPa	0.517 mPa·s and 0.48 mPa·s
298.15 K, 101.32 kPa	0.507 mPa·s
303.15 K, 100 kPa	0.452 mPa·s
303.15 K, 101 kPa	0.482 mPa·s
303.15 K, 101.33 kPa	0.4865 mPa·s and 0.479 mPa·s (2×) and 0.479 mPa·s
308.15 K, 100 kPa	0.468 mPa·s and 0.425 mPa·s
308.16 K, 101.3 kPa	0.4568 mPa·s
313.15 K, 100 kPa	0.447 mPa·s and 0.4 mPa·s and 0.429 mPa·s
318.15 K, 101.33 kPa	0.403 mPa·s
318.16 K, 101 kPa	0.4138 mPa·s
323.15 K, 100 kPa	0.385 mPa·s
323.15 K, 101 kPa	0.4049 mPa·s

CCCCCCCCCCCCCC
Settings	viscosity
293.15 K, 101.33 kPa	2.282 mPa·s and 2.292 mPa·s and 2.292 mPa·s
298 K, 101.33 kPa	2.074 mPa·s
298.15 K, 100 kPa	2.15 mPa·s
298.15 K, 101.33 kPa	2.088 mPa·s and 2.091 mPa·s and 2.025 mPa·s
298.15 K, 103 kPa	2.048 mPa·s
303.15 K, 101 kPa	1.895 mPa·s and 1.895 mPa·s
303.15 K, 101.33 kPa	1.864 mPa·s
308.15 K, 101 kPa	1.715 mPa·s and 1.715 mPa·s
308.15 K, 103 kPa	1.685 mPa·s
313.15 K, 100 kPa	1.612 mPa·s
313.15 K, 101.33 kPa	1.548 mPa·s
318.15 K, 101.33 kPa	1.356 mPa·s
318.15 K, 103 kPa	1.413 mPa·s
323.15 K, 101.33 kPa	1.314 mPa·s

CCCCCCCCCCCCCCCCCCC
Settings	viscosity [mPa·s]
313.15 K, 101 kPa	3.49

CCCCCCCCCCCCCC[P+](CCCCCC)(CCCCCC)CCCCCC.N#C[N-]C#N
viscosity [mPa·s]
Settings	293.15 K	298.15 K	303.15 K	308.15 K	313.15 K	318.15 K	323.15 K
100 kPa	603	442	331	253	196	155	124
101 kPa	–	440	328	–	196	–	123

CCCCCO
Settings	viscosity
293.15 K, 100 kPa	4.057 mPa·s and 4.155 mPa·s and 3.964 mPa·s
293.15 K, 101 kPa	3.939 mPa·s and 3.99 mPa·s and 4.06 mPa·s
293.15 K, 101.33 kPa	3.675 mPa·s and 4.109 mPa·s and 4.109 mPa·s
298.15 K, 100 kPa	3.512 mPa·s and 3.595 mPa·s
298.15 K, 101.3 kPa	3.302 mPa·s
303.15 K, 101.3 kPa	3 mPa·s and 2.832 mPa·s
308.15 K, 101.3 kPa	2.449 mPa·s
313.15 K, 101.3 kPa	2.3 mPa·s and 2.344 mPa·s
318 K, 101.3 kPa	2.075 mPa·s
318.15 K, 100 kPa	2.085 mPa·s
318.15 K, 101.3 kPa	2.066 mPa·s
323 K, 101.3 kPa	1.853 mPa·s
323.15 K, 101 kPa	1.784 mPa·s

CCI
Settings	viscosity [mPa·s]
298.15 K, 101 kPa	0.577

CCOCCOCCO
101 kPa
Settings	viscosity
293.15 K	4.291 mPa·s and 3.626 mPa·s
298.15 K	3.799 mPa·s and 3.686 mPa·s and 3.278 mPa·s
303.15 K	3.186 mPa·s and 2.862 mPa·s
308.15 K	2.839 mPa·s and 2.859 mPa·s and 2.507 mPa·s
313.15 K	2.511 mPa·s
318.15 K	2.358 mPa·s and 2.269 mPa·s

CCn1cc[n+](CCOC)c1.O=S(=O)([N-]S(=O)(=O)C(F)(F)F)C(F)(F)F
100 kPa
Settings	viscosity [mPa·s]
293.15 K	43.63
298.15 K	35.49
303.15 K	29.33
308.15 K	24.58
313.15 K	20.86
318.15 K	18.03

CN(C)C=O
Settings	viscosity
293.15 K, 100 kPa	0.855 mPa·s
293.15 K, 101.33 kPa	0.9248 mPa·s and 0.88 mPa·s
298.15 K, 100 kPa	0.82 mPa·s and 0.843 mPa·s
298.15 K, 101.3 kPa	0.792 mPa·s
298.15 K, 101.33 kPa	0.83 mPa·s
302.15 K, 101 kPa	1.032 mPa·s
303 K, 101.33 kPa	0.758 mPa·s
303.15 K, 101.3 kPa	0.7675 mPa·s and 0.7524 mPa·s
303.15 K, 101.33 kPa	0.78 mPa·s
305.15 K, 101 kPa	0.979 mPa·s
308 K, 101.33 kPa	0.721 mPa·s
308.15 K, 100 kPa	0.729 mPa·s and 0.718 mPa·s
308.15 K, 101.3 kPa	0.7077 mPa·s
308.15 K, 101.33 kPa	0.74 mPa·s
313.15 K, 100 kPa	0.687 mPa·s and 0.688 mPa·s
313.15 K, 101.3 kPa	0.6644 mPa·s
313.15 K, 101.33 kPa	0.7143 mPa·s and 0.7 mPa·s
318 K, 101.3 kPa	0.6348 mPa·s
318 K, 101.33 kPa	0.6348 mPa·s
318.15 K, 100 kPa	0.652 mPa·s
318.15 K, 101.33 kPa	0.67 mPa·s
323.15 K, 101.33 kPa	0.63 mPa·s

COCC(C)O (centres undefined)
viscosity
Settings	298.15 K	303.15 K	308.15 K	313.15 K	318.15 K
101 kPa	1.55 mPa·s	1.3 mPa·s	1.22 mPa·s	1.11 mPa·s	1.04 mPa·s
101.33 kPa	1.671 mPa·s and 1.723 mPa·s and 1.694 mPa·s	–	1.374 mPa·s and 1.329 mPa·s	–	1.09 mPa·s and 1.078 mPa·s

Cc1ccnc(C)c1
101 kPa
Settings	viscosity
303 K	0.7893 mPa·s and 0.7892 mPa·s
313 K	0.6863 mPa·s and 0.686 mPa·s
323 K	0.6133 mPa·s and 0.6129 mPa·s

ClC(Cl)=C(Cl)Cl
Settings	viscosity
293.15 K, 101.33 kPa	0.8 mPa·s
298 K, 101 kPa	1.02 mPa·s
298.15 K, 101 kPa	0.838 mPa·s and 0.8486 mPa·s and 0.8426 mPa·s
298.15 K, 101.33 kPa	0.846 mPa·s
303 K, 101 kPa	0.97 mPa·s
303.15 K, 101 kPa	0.7976 mPa·s and 0.798 mPa·s and 0.814 mPa·s
303.15 K, 101.3 kPa	0.799 mPa·s
303.15 K, 101.32 kPa	0.7976 mPa·s
308 K, 101 kPa	0.92 mPa·s
313 K, 101 kPa	0.88 mPa·s
313.15 K, 101.33 kPa	0.731 mPa·s and 0.68 mPa·s
